From patent US7579468B2, “Methods of modulating neurotrophin-mediated activity” (PainCeptor Pharma Corporation, priority 2005, dated 2009)

System: HEK_TrkA: TrkA alone (human TrkA)
Experiment: 125I-NGF binding displacement in HEK_TrkA cells
Conditions: individual experiment
Protocol: All cells were incubated at 37° C. in 5% CO2. PC12 cells were maintained in RPMI-1640 medium supplemented with 10% fetal bovine serum (FBS). A875 human melanoma cells were maintained in DMEM with 10% FBS. HEK 293 cells were stably transfected with human TrkA plasmid (see below) and maintained in DMEM with 10% FBS and G418 (600 μg/mL) for selection.
Expression of human TrkA in HEK cells was achieved by transfecting the cells with the TrkA expression vector using Lipofectamine (Invitrogen) reagent. HEK cells were plated in 100 mm Petri dishes at a concentration of 10^6 cells per dish. The next day, a solution of DNA diluted in 1 mL OptiMEM (Invitrogen) per dish was prepared and incubated for 15 min at room temperature. […]
NGF binding was evaluated using methods familiar to those who are skilled in the art. […] Non-specific binding was determined for reference by incubating ^125I-NGF with an excess of non-radioactive NGF in the absence of compound. Following a two-hour incubation period at 4° C., ^125I-NGF bound to the cells was quantified in a gamma radiation counter following separation from unbound NGF by filtration or centrifugation through glycerol (10% in HKR). Inhibition of binding was calculated as a percent of the specific binding (calculated as the differential between ^125I-NGF binding in the absence and presence of an excess of non-radioactive NGF without compound). […]

`CC(=O)Nc1cc2c3c(cc(NC(C)=O)cc3c1)C(=O)N(CCCC(=O)O)C2=O` [Compound 11, 4-(5,8-Bis-acetylamino-1,3-dioxo-1H,3H-benzo[de]isoquinolin-2-yl)-butyric acid] was tested, and the “NGF binding displacement, dose-response curve” value was “effectively blocks NGF binding to TrkA”.
